Key:
healthy subjects [1] = experiment: Reading the Mind in the Eyes Test (RMET); assay type: in vivo, human
From the text: In some embodiments, Reading the Mind in the Eyes Test (RMET) is utilized to evaluate the safety and/or efficacy of psilocybin. The RMET has 36 items, in which subjects are presented with a photograph of the eyes region of the face and must choose 1 of 4 adjectives or phrases to describe the mental state of the person pictured. A definition handout is provided at the beginning of the task and a practice item precedes the first trial.
The following list of outcome measures are non-exhaustive. • a. The short-term change from Baseline (Day −1 [Visit 2]) to Day 7 (Visit 5) in cognitive measures of attention, spatial and working memory and executive function was measured by a composite score of the CANTAB Panel (Spatial Working Memory [SWM], Rapid Visual Information Processing [RVP], Paired Associates Learning [PAL]). • b. The short-term change from Baseline (Day −1 [Visit 2]) to Day 7 (Visit 5) in Social Cognition Panel scales (Pictorial Empathy Test [PET], Reading the Mind in the Eyes Test [RMET], Toronto Empathy Questionnaire [TEQ], Social Value Orientation [SVO], Scale of Social Responsibility [SSR]). • c. The change from Baseline (Day −1 [Visit 2]) to Day 28 (Visit 6) in cognitive measures of attention, spatial and working memory and executive function as measured by a composite score of the CANTAB Panel (SWM, RVP, PAL). • d. The long-term change from Baseline (Day −1 [Visit 2]) to Day 84 (Visit 7) in Social Cognition Panel scales (PET, RMET, TEQ, SVO, SSR). • e. Dose-related differences between cognitive effects of psilocybin at Baseline (Day −1 [Visit 2]), Day 7 (Visit 5) and Day 28 (Visit 6), as measured by a composite score of the CANTAB Panel (SWM, RVP, PAL). • f. Dose-related differences between psychological effects of psilocybin at Baseline (Day −1 [Visit 2]), Day 7 (Visit 5) and Day 84 (Visit 7), as measured by Social Cognition Panel scales (PET, RMET, TEQ, SVO, SSR). • g. Differences in cognitive effects of psilocybin between psilocybin-naïve and experienced subjects at Baseline (Day −1 [Visit 2]), Day 7 (Visit 5) and Day 28 (Visit 6), as measured by a composite score of the CANTAB Panel (SWM, RVP, PAL). • h. Differences in Positive and Negative Affect Schedule (PANAS) after study drug administration on Day 0 (Visit 3). • i. Differences between psilocybin and placebo in the Emotion Recognition Test (ERT), Intra-Extra Dimensional Set Shift (IED), One Touch Stockings (OTS), Verbal Fluency and Digit Span Forward at Day 7 (Visit 5). • j. A composite score of the CANTAB Panel, including the following tests: • i. Spatial Working Memory (SWM) (performed at Visit 2, Visit 5, and Visit 6). • ii. Rapid Visual Information Processing (RVP) (performed at Visit 2, Visit 5, and Visit 6). • iii. Paired Associates Learning (PAL) (performed at Visit 2, Visit 5, and Visit 6). • k. Cognitive Flexibility Panel • i. Emotion Recognition Task (ERT) (performed at Visit 5). • ii. Intra-Extra Dimensional Set Shift (IED) (performed at Visit 5). • iii. One Touch Stockings (OTS) (performed at Visit 5). • iv. Verbal Fluency (performed at Visit 5). • v. Digit Span Forward (performed at Visit 5). • l. Five Dimension Altered States of Consciousness questionnaire (5D-ASC) (performed at Visit 3). • m. PANAS (performed at Visit 2 and Visit 3). • n. NEO-Five Factor Inventory (NEO-FFI) (performed at Visit 2, Visit 5, and Visit 7). • o. Symptom Checklist-90 item (SCL-90) (performed at Visit 2, Visit 5, and Visit 7). • p. Life Changes Inventory (LCI): The LCI measures changes in attitudes and values after near-death experiences often used to evaluate personal transformation following spiritually oriented experiences and practices. (performed at Visit 5 and Visit 7). • q. Social Cognition Panel scales • i. Pictorial Empathy Test (PET) (performed at Visit 2, Visit 5, and Visit 7). • ii. Reading the Mind in the Eyes Test (RMET) (performed at Visit 2, Visit 5, and Visit 7). • iii. Social Value Orientation (SVO) (performed at Visit 2, Visit 5, and Visit 7). • iv. […]

healthy subjects [2] = experiment: NEO-Five Factor Inventory (NEO-FFI); assay type: in vivo, human
Description: In some embodiments, the NEO-Five Factor Inventory (NEO-FFI) test is used to evaluate the safety and/or efficacy of psilocybin. The NEO-FFI evaluates 5 broad domains of personality—Neuroticism, Extroversion, Openness, Agreeableness and Conscientiousness.
The Neuroticism Extraversion Openness-Five Factor Inventory (NEO-FFI) and Symptom Checklist-90 Item (SCL-90) were administered. Details of the MMRM applied to the change from baseline scores for the NEO-FFI and SCL-90 are provided below in Table 28.

CN(C)CCc1c[nH]c2cccc(OP(=O)(O)O)c12 [psilocybin]
RMET change from baseline, LS mean difference Psilocybin 10 mg - Placebo (healthy subjects [1]; Day 7, MMRM): 0.1
RMET change from baseline, LS mean difference Psilocybin 25 mg - Placebo (healthy subjects [1]; Day 7, MMRM): 0.2
RMET change from baseline, LS mean difference Psilocybin 25 mg-10 mg (healthy subjects [1]; Day 7, MMRM): 0.0
RMET change from baseline, LS mean difference Psilocybin 10 mg - Placebo (healthy subjects [1]; Day 84, MMRM): 0.2
RMET change from baseline, LS mean difference Psilocybin 25 mg - Placebo (healthy subjects [1]; Day 84, MMRM): 0.5
RMET change from baseline, LS mean difference Psilocybin 25 mg-10 mg (healthy subjects [1]; Day 84, MMRM): 0.3
NEO agreeableness change from baseline, difference Psilocybin 10 mg - Placebo (healthy subjects [2]; Day 7): −0.4
NEO agreeableness change from baseline, difference Psilocybin 25 mg - Placebo (healthy subjects [2]; Day 7): −0.1
NEO agreeableness change from baseline, difference Psilocybin (25 mg-10 mg) (healthy subjects [2]; Day 7): 0.4
NEO conscientiousness change from baseline, difference Psilocybin 10 mg - Placebo (healthy subjects [2]; Day 7): 0.4
NEO conscientiousness change from baseline, difference Psilocybin 25 mg - Placebo (healthy subjects [2]; Day 7): 0.7
NEO conscientiousness change from baseline, difference Psilocybin (25 mg-10 mg) (healthy subjects [2]; Day 7): 0.3
NEO extraversion change from baseline, difference Psilocybin 10 mg - Placebo (healthy subjects [2]; Day 7): 0.4
NEO extraversion change from baseline, difference Psilocybin 25 mg - Placebo (healthy subjects [2]; Day 7): 0.5
NEO extraversion change from baseline, difference Psilocybin (25 mg-10 mg) (healthy subjects [2]; Day 7): 0.1
NEO neuroticism change from baseline, difference Psilocybin 10 mg - Placebo (healthy subjects [2]; Day 7): −0.2
NEO neuroticism change from baseline, difference Psilocybin 25 mg - Placebo (healthy subjects [2]; Day 7): 0.2
NEO neuroticism change from baseline, difference Psilocybin (25 mg-10 mg) (healthy subjects [2]; Day 7): −0.0
NEO openness change from baseline, difference Psilocybin 10 mg - Placebo (healthy subjects [2]; Day 7): 1.1
NEO openness change from baseline, difference Psilocybin 25 mg - Placebo (healthy subjects [2]; Day 7): 1.2
NEO openness change from baseline, difference Psilocybin (25 mg-10 mg) (healthy subjects [2]; Day 7): 0.1
NEO agreeableness change from baseline, difference Psilocybin 10 mg - Placebo (healthy subjects [2]; Day 84): −0.8
NEO agreeableness change from baseline, difference Psilocybin 25 mg - Placebo (healthy subjects [2]; Day 84): −0.7
NEO agreeableness change from baseline, difference Psilocybin (25 mg-10 mg) (healthy subjects [2]; Day 84): 0.1
NEO conscientiousness change from baseline, difference Psilocybin 10 mg - Placebo (healthy subjects [2]; Day 84): 0.2
NEO conscientiousness change from baseline, difference Psilocybin 25 mg - Placebo (healthy subjects [2]; Day 84): 1.4
NEO conscientiousness change from baseline, difference Psilocybin (25 mg-10 mg) (healthy subjects [2]; Day 84): 1.2
NEO extraversion change from baseline, difference Psilocybin 10 mg - Placebo (healthy subjects [2]; Day 84): −0.7
NEO extraversion change from baseline, difference Psilocybin 25 mg - Placebo (healthy subjects [2]; Day 84): −0.5
NEO extraversion change from baseline, difference Psilocybin (25 mg-10 mg) (healthy subjects [2]; Day 84): 0.2
NEO neuroticism change from baseline, difference Psilocybin 10 mg - Placebo (healthy subjects [2]; Day 84): 0.3
NEO neuroticism change from baseline, difference Psilocybin 25 mg - Placebo (healthy subjects [2]; Day 84): −1.0
NEO neuroticism change from baseline, difference Psilocybin (25 mg-10 mg) (healthy subjects [2]; Day 84): −1.3
NEO openness change from baseline, difference Psilocybin 10 mg - Placebo (healthy subjects [2]; Day 84): 1.1
NEO openness change from baseline, difference Psilocybin 25 mg - Placebo (healthy subjects [2]; Day 84): 0.4
NEO openness change from baseline, difference Psilocybin (25 mg-10 mg) (healthy subjects [2]; Day 84): −0.7

Source: patent US11865126B2, “Method for treating anxiety disorders, headache disorders, and eating disorders with psilocybin” (priority 2019, dated 2024)
